This assay concerns the target collagenase. In words: Collagenase inhibition activity (acetylated 14C collagen hydrolysis, Cawston and Barrett). It is filed as biochemical. The conditions noted are these: 37°, 16 hours, pH 7.5, read-out: IC50 (inhibitor concentration effecting 50% inhibition of the collagenase). On the procedure:
The potency of compounds of general formula I to act as inhibitors of collagenase (a metalloprotease involved in tissue degradation) was determined by the procedure of Cawston and Barrett, (Anal. Biochem., 99, 340-345, 1979) and their potency to act as inhibitors of stromelysin was determined using the procedure of Cawston et al (Biochem. J., 195, 159-165 1981), both of which techniques are to be described more fully in the examples and, to the extent that the law allows, are incorporated by reference herein.
The potency of compounds of general formula I to act as inhibitors of collagenase (a metalloprotease involved in tissue degradation) was determined by the procedure of Cawston and Barrett, (Anal. Biochem., 99, 340-345, 1979), hereby incorporated by reference, whereby a 1 mM solution of the inhibitor being tested or dilutions thereof was incubated at 37° for 16 hours with collagen and collagenase (buffered with 25 mM Hepes, pH 7.5 containing 5 mM CaCl2, 0.05% Brij 35 and 0.02% NAN3). The collagen was acetylated ^14C collagen prepared by the method of Cawston and Murphy (Methods in Enzymology, 80, 711, 1981), hereby incorporated by reference. The samples were centrifuged to sediment undigested collagen and an aliquot of the radioactive supernatant removed for assay on a scintillation counter as a measure of hydrolysis. The collagenase activity in the presence of 1 mM inhibitor, or a dilution thereof, was compared to activity in a control devoid of inhibitor and the results reported below as that inhibitor concentration effecting 50% inhibition of the collagenase (IC50).

Molecules are shown by their SMILES.

As to `CC(C)C[C@H](CC(=O)NO)C(=O)N[C@@H](Cc1ccccc1)C(=O)N(C)CCO` [Example 2, [4-(N-Hydroxyamino)-2R-isobutylsuccinyl]-L-phenylalanine-N-(2-hydroxyethyl)-N-methylamide], the IC50 amounted to 0.2 µM.
In the case of `CCSCCNC(=O)[C@H](Cc1ccccc1)NC(=O)[C@@H](CC(=O)NO)CC(C)C` [Example 3, [4-(N-Hydroxyamino)-2R-isobutylsuccinyl]-L-phenylalanine-N-(2-ethylthioethyl) amide], the IC50 came out at 0.02 µM.
In the case of `CC(=O)NCCNC(=O)[C@H](Cc1ccccc1)NC(=O)[C@@H](CC(=O)NO)CC(C)C` [Example 4, [4-(N-Hydroxyamino)-2R-isobutylsuccinyl]-L-phenylalanine-N-(2-N-acetylethyl) amide], the IC50 stood at 0.09 µM.

These data come from patent US5453438A, “Hydroxamic acid based collagenase inhibitors” (British Biotech Pharmaceuticals Limited, priority 1989, dated 1995).
